Values after ≈ are worked out from the molar mass of the structure shown. Read-outs that look alike come from different tables or passages of the source.
Tests used:
Experiment in all cases: antimicrobial activity, serial dilution method on agar plate
Assay type in all cases: cell-based
[1] = system: Bacillus subtilis PCI 219
Summary of the method: (§1)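 Two inoculum levels used: 1×10^8 cells/ml (O.D. 660 mμ = 0.07–0.16) and a diluted 1×10^6 cells/ml preparation. Minimum inhibitory concentrations in mcg/ml read from serial dilution on Heart Infusion agar plates.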

Enterobacter cloacae = system: Enterobacter cloacae
Summary of the method: as §1

[2] = system: Escherichia Coli NIHJ JC-2 (IFO 12734); settings: Escherichia coli, read-out: Minimum Inhibitory Concentration
Summary of the method: as §1

Escherichia Coli NIHJ = system: Escherichia Coli NIHJ
Summary of the method: as §1

Hafnia alvei IFO 3731 = system: Hafnia alvei IFO 3731
Summary of the method: as §1

[3] = system: Klebsiella pneumoniae ST-101
Summary of the method: as §1

Klebsiella pneumoniae = system: Klebsiella pneumoniae
Summary of the method: as §1

[4] = system: Proteus morganii IID Kono; settings: Morganella morganii
Summary of the method: as §1

Proteus rettgeri NIH 96 = settings: Providencia rettgeri
Summary of the method: as §1

[5] = system: Proteus vulgaris IID OX-19; settings: read-out: Minimum Inhibitory Concentration
Summary of the method: as §1

[6] = system: Pseudomonas aeruginosa E-2
Summary of the method: as §1

[7] = system: Pseudomonas maltophilia IFO 12692; settings: Stenotrophomonas maltophilia, IFO12692, read-out: Minimum Inhibitory Concentration
Summary of the method: as §1

[8] = system: Pseudomonas putida IFO 13696
Summary of the method: as §1

[9] = system: Salmonella typhi 0-901 (NCTC 8393); settings: Salmonella enterica, read-out: Minimum Inhibitory Concentration
Summary of the method: as §1

[10] = system: Serattia marcescens IFO 12648
Summary of the method: as §1

Shigella Sonnei EW 33 = settings: read-out: Minimum Inhibitory Concentration
Summary of the method: as §1

[11] = system: Streptococcus pneumoniae Type III
Summary of the method: as §1

[12] = system: Streptococcus pneumoniae Type I
Summary of the method: as §1

[13] = system: Streptococcus pyogenes IID Cook
Summary of the method: as §1

[14] = system: Streptococcus pyogenes IID S-23
Summary of the method: as §1

[15] = system: Yersinia enterocolitica 0-3
Summary of the method: as §1

[16] = read-out: Minimum Inhibitory Concentration, inoculum 1 × 10^6 cells/ml
[17] = read-out: Minimum Inhibitory Concentration, inoculum 1 × 10^8 cells/ml

Structure (SMILES): CC1Cc2c(N3CCNCC3)ccc3c(=O)c(C(=O)O)cn1c23 (stereo not shown) [C]
- MIC ([1]; PCI219, read-out: Minimum Inhibitory Concentration, inoculum 1 × 10^6 cells/ml): 3.1 µg/mL (≈ 9.89 µM)
- MIC ([1]; PCI219, read-out: Minimum Inhibitory Concentration, inoculum 1 × 10^8 cells/ml): 3.1 µg/mL (≈ 9.89 µM)
- MIC (Enterobacter cloacae; [16]): 0.4 µg/mL (≈ 1.28 µM)
- MIC (Enterobacter cloacae; [17]): 0.8 µg/mL (≈ 2.55 µM)
- MIC [2]: 1.6 µg/mL (≈ 5.11 µM)
- MIC (Escherichia Coli NIHJ; [16]): 0.4 µg/mL (≈ 1.28 µM)
- MIC (Escherichia Coli NIHJ; [17]): 0.8 µg/mL (≈ 2.55 µM)
- MIC (Hafnia alvei IFO 3731; IFO3731, read-out: Minimum Inhibitory Concentration, inoculum 1 × 10^6 cells/ml): 0.8 µg/mL (≈ 2.55 µM)
- MIC (Hafnia alvei IFO 3731; IFO3731, read-out: Minimum Inhibitory Concentration, inoculum 1 × 10^8 cells/ml): 1.6 µg/mL (≈ 5.11 µM)
- MIC ([3]; ST101, read-out: Minimum Inhibitory Concentration, inoculum 1 × 10^6 cells/ml): 0.2 µg/mL (≈ 0.638 µM)
- MIC ([3]; ST101, read-out: Minimum Inhibitory Concentration, inoculum 1 × 10^8 cells/ml): 0.8 µg/mL (≈ 2.55 µM)
- MIC (Klebsiella pneumoniae; [16]): 0.8 µg/mL (≈ 2.55 µM)
- MIC (Klebsiella pneumoniae; [17]): 0.8 µg/mL (≈ 2.55 µM)
- MIC [4, 16]: 3.1 µg/mL (≈ 9.89 µM)
- MIC [4, 17]: 3.1 µg/mL (≈ 9.89 µM)
- MIC (Proteus rettgeri NIH 96; NIH96, read-out: Minimum Inhibitory Concentration, inoculum 1 × 10^6 cells/ml): 0.8 µg/mL (≈ 2.55 µM)
- MIC (Proteus rettgeri NIH 96; NIH96, read-out: Minimum Inhibitory Concentration, inoculum 1 × 10^8 cells/ml): 0.8 µg/mL (≈ 2.55 µM)
- MIC ([5]; IIDOX19, inoculum 1 × 10^6 cells/ml): 0.8 µg/mL (≈ 2.55 µM)
- MIC ([5]; IIDOX19, inoculum 1 × 10^8 cells/ml): 3.1 µg/mL (≈ 9.89 µM)
- MIC ([6]; E2, read-out: Minimum Inhibitory Concentration, inoculum 1 × 10^6 cells/ml): 3.1 µg/mL (≈ 9.89 µM)
- MIC ([6]; E2, read-out: Minimum Inhibitory Concentration, inoculum 1 × 10^8 cells/ml): 6.3 µg/mL (≈ 20.1 µM)
- MIC [7]: 6.3 µg/mL (≈ 20.1 µM)
- MIC ([8]; IFO13696, read-out: Minimum Inhibitory Concentration, inoculum 1 × 10^6 cells/ml): 3.1 µg/mL (≈ 9.89 µM)
- MIC ([8]; IFO13696, read-out: Minimum Inhibitory Concentration, inoculum 1 × 10^8 cells/ml): 3.1 µg/mL (≈ 9.89 µM)
- MIC ([9]; inoculum 1 × 10^6 cells/ml): 0.2 µg/mL (≈ 0.638 µM)
- MIC ([9]; inoculum 1 × 10^8 cells/ml): 0.4 µg/mL (≈ 1.28 µM)
- MIC [10, 16]: 1.6 µg/mL (≈ 5.11 µM)
- MIC [10, 17]: 3.1 µg/mL (≈ 9.89 µM)
- MIC (Shigella Sonnei EW 33; inoculum 1 × 10^6 cells/ml): 1.6 µg/mL (≈ 5.11 µM)
- MIC (Shigella Sonnei EW 33; inoculum 1 × 10^8 cells/ml): 1.6 µg/mL (≈ 5.11 µM)
- MIC [11, 16]: 50 µg/mL (≈ 160 µM)
- MIC [11, 17]: 100 µg/mL (≈ 319 µM)
- MIC [12, 16]: 50 µg/mL (≈ 160 µM)
- MIC [12, 17]: 100 µg/mL (≈ 319 µM)
- MIC [13, 16]: 25 µg/mL (≈ 79.8 µM)
- MIC [13, 17]: 50 µg/mL (≈ 160 µM)
- MIC ([14]; IIDS23, read-out: Minimum Inhibitory Concentration, inoculum 1 × 10^6 cells/ml): 50 µg/mL (≈ 160 µM)
- MIC ([14]; IIDS23, read-out: Minimum Inhibitory Concentration, inoculum 1 × 10^8 cells/ml): 100 µg/mL (≈ 319 µM)
- MIC ([15]; Yersinia enterocolitica, 03, read-out: Minimum Inhibitory Concentration, inoculum 1 × 10^6 cells/ml): 1.6 µg/mL (≈ 5.11 µM)
- MIC ([15]; Yersinia enterocolitica, 03, read-out: Minimum Inhibitory Concentration, inoculum 1 × 10^8 cells/ml): 1.6 µg/mL (≈ 5.11 µM)
